From ChEMBL document CHEMBL1201862, “PubChem BioAssay data set” (2004)
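All cell lines were grown in 96-well plates and treated with compound for 48 hours. GI50 = concentration required for 50% inhibition of growth.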 Active and inactive are the calls of the source. Cut-off read from the data, not from the text of the source: active = GI50 up to about 1.1 µM and inactive = higher.

Experiments:
Experiment in all cases: DTP human tumour cell line panel, 48 h
786-0 = tested on: 786-0
A498 = tested on: A498
A549 = tested on: A549
ACHN = tested on: ACHN
CAKI-1 = tested on: CAKI-1
CCRF-CEM = tested on: CCRF-CEM
COLO 205 = tested on: COLO 205
DU-145 = tested on: DU-145
EKVX = tested on: EKVX
HCC 2998 = tested on: HCC 2998
HCT-116 = tested on: HCT-116
HCT-15 = tested on: HCT-15
HL-60 = tested on: HL-60
HOP-62 = tested on: HOP-62
HOP-92 = tested on: HOP-92
HT-29 = tested on: HT-29
Hs-578T = tested on: Hs-578T
IGROV-1 = tested on: IGROV-1
K562 = tested on: K562
KM12 = tested on: KM12
LOX IMVI = tested on: LOX IMVI
M14 = tested on: M14
MCF7 = tested on: MCF7
MDA-MB-231 = tested on: MDA-MB-231
MDA-MB-435 = tested on: MDA-MB-435
MDA-N = tested on: MDA-N
MOLT-4 = tested on: MOLT-4
Malme-3M = tested on: Malme-3M
NCI-H226 = tested on: NCI-H226
NCI-H23 = tested on: NCI-H23
NCI-H460 = tested on: NCI-H460
NCI-H522 = tested on: NCI-H522
NCI/ADR-RES = tested on: NCI/ADR-RES
OVCAR-3 = tested on: OVCAR-3
OVCAR-4 = tested on: OVCAR-4
OVCAR-5 = tested on: OVCAR-5
OVCAR-8 = tested on: OVCAR-8
PC-3 = tested on: PC-3
RPMI-8226 = tested on: RPMI-8226
RXF 393 = tested on: RXF 393
SF-268 = tested on: SF-268
SF-295 = tested on: SF-295
SF-539 = tested on: SF-539
SK-MEL-28 = tested on: SK-MEL-28
SK-MEL-2 = tested on: SK-MEL-2
SK-MEL-5 = tested on: SK-MEL-5
SK-OV-3 = tested on: SK-OV-3
SN12C = tested on: SN12C
SNB-19 = tested on: SNB-19
SNB-75 = tested on: SNB-75
SR = tested on: SR
SW-620 = tested on: SW-620
T47D = tested on: T47D
TK-10 = tested on: TK-10
U-251 = tested on: U-251
UACC-257 = tested on: UACC-257
UACC-62 = tested on: UACC-62
UO-31 = tested on: UO-31
BT-549 = tested on: BT-549

Measured: GI50

Cc1ccccc1NC(=S)N/N=C1\C(=O)Nc2ccccc21
> 100 µM: HCT-15
inactive: 786-0 > 100 µM | A498 86.3 µM | A549 > 100 µM | ACHN > 100 µM | CAKI-1 > 100 µM | CCRF-CEM > 100 µM | COLO 205 > 100 µM | DU-145 31.4 µM | EKVX > 100 µM | HCC 2998 > 100 µM | HCT-116 > 100 µM | HL-60 > 100 µM | HOP-62 > 100 µM | HOP-92 > 100 µM | HT-29 > 100 µM | Hs-578T > 100 µM | IGROV-1 > 100 µM | K562 > 100 µM | KM12 > 100 µM | LOX IMVI > 100 µM | M14 > 100 µM | MCF7 > 100 µM | MDA-MB-231 > 100 µM | MDA-MB-435 > 100 µM | MDA-N > 100 µM | MOLT-4 > 100 µM | Malme-3M > 100 µM | NCI-H226 > 100 µM | NCI-H23 > 100 µM | NCI-H460 > 100 µM | NCI-H522 > 100 µM | NCI/ADR-RES > 100 µM | OVCAR-3 > 100 µM | OVCAR-4 > 100 µM | OVCAR-5 > 100 µM | OVCAR-8 > 100 µM | PC-3 > 100 µM | RPMI-8226 > 100 µM | RXF 393 > 100 µM | SF-268 15.1 µM | SF-295 > 100 µM | SF-539 > 100 µM | SK-MEL-28 15.1 µM | SK-MEL-2 > 100 µM | SK-MEL-5 > 100 µM | SK-OV-3 > 100 µM | SN12C > 100 µM | SNB-19 > 100 µM | SNB-75 > 100 µM | SR 70.6 µM | SW-620 > 100 µM | T47D > 100 µM | TK-10 > 100 µM | U-251 > 100 µM | UACC-257 > 100 µM | UACC-62 > 100 µM | UO-31 > 100 µM

O=C1C(Cl)=C(OCCCl)C(=O)c2c(O)ccc(O)c21
inactive: 786-0 6.58 µM | A498 20.5 µM | A549 20 µM | ACHN 3.16 µM | BT-549 13.3 µM | CAKI-1 2.38 µM | COLO 205 1.61 µM | DU-145 17.9 µM | EKVX 18.6 µM | HCC 2998 18.5 µM | HOP-62 16.7 µM | HOP-92 1.57 µM | HT-29 4.73 µM | IGROV-1 7.13 µM | KM12 19.7 µM | LOX IMVI 4.32 µM | M14 1.88 µM | MCF7 2.06 µM | MDA-MB-231 4.38 µM | MDA-N 2.91 µM | Malme-3M 2.89 µM | NCI-H226 17 µM | NCI-H23 5.75 µM | NCI-H460 18.5 µM | NCI/ADR-RES 15.2 µM | OVCAR-3 2.96 µM | OVCAR-4 2.77 µM | OVCAR-5 17.7 µM | OVCAR-8 13.9 µM | PC-3 13.2 µM | RXF 393 6.44 µM | SF-268 5.47 µM | SF-295 17.5 µM | SF-539 17.3 µM | SK-MEL-28 4.06 µM | SK-MEL-5 2.75 µM | SK-OV-3 18.2 µM | SN12C 14.8 µM | SNB-19 16.7 µM | SNB-75 13 µM | SW-620 2.05 µM | T47D 1.39 µM | TK-10 2.6 µM | U-251 14.3 µM | UACC-257 2.59 µM | UACC-62 3.88 µM | UO-31 5.36 µM
2.53 µM: HCT-15
active: CCRF-CEM 0.0813 µM | HCT-116 0.755 µM | HL-60 0.0617 µM | K562 0.267 µM | MOLT-4 0.212 µM | RPMI-8226 0.74 µM | SR 0.113 µM

O=C1CSC(c2c[nH]c3ccccc23)N1c1ccccc1[N+](=O)[O-] (stereo not drawn)
> 100 µM: HCT-15
inactive: 786-0 > 100 µM | A549 > 100 µM | BT-549 > 100 µM | CCRF-CEM > 100 µM | COLO 205 > 100 µM | DU-145 > 100 µM | EKVX > 100 µM | HCC 2998 > 100 µM | HCT-116 > 100 µM | HL-60 > 100 µM | HOP-62 > 100 µM | HOP-92 > 100 µM | HT-29 > 100 µM | IGROV-1 > 100 µM | K562 > 100 µM | KM12 > 100 µM | LOX IMVI > 100 µM | M14 > 100 µM | MCF7 > 100 µM | MDA-MB-231 > 100 µM | MDA-MB-435 > 100 µM | MDA-N > 100 µM | MOLT-4 > 100 µM | NCI-H23 > 100 µM | NCI-H460 > 100 µM | NCI-H522 > 100 µM | OVCAR-3 > 100 µM | OVCAR-4 > 100 µM | OVCAR-5 > 100 µM | OVCAR-8 > 100 µM | PC-3 > 100 µM | RPMI-8226 > 100 µM | RXF 393 > 10 µM | SF-268 > 100 µM | SF-295 > 100 µM | SF-539 > 100 µM | SK-MEL-28 > 100 µM | SK-MEL-5 > 100 µM | SK-OV-3 > 100 µM | SN12C > 100 µM | SNB-19 > 100 µM | SR > 100 µM | SW-620 > 100 µM | T47D > 100 µM | TK-10 > 100 µM | U-251 > 100 µM | UACC-257 > 100 µM | UACC-62 > 100 µM | UO-31 > 100 µM

CCCCC(=O)Nc1ccc2cc(C(=O)OC)c(ON3C(=O)c4ccccc4C3=O)nc2n1
inactive: 786-0 17 µM | A498 27.4 µM | A549 27.2 µM | ACHN 28.1 µM | BT-549 38.3 µM | CAKI-1 22.2 µM | CCRF-CEM 71.3 µM | COLO 205 64.4 µM | EKVX 33.1 µM | HCC 2998 22.6 µM | HCT-116 15.7 µM | HOP-62 18.6 µM | HOP-92 26.4 µM | IGROV-1 16.3 µM | K562 33.2 µM | KM12 30.3 µM | LOX IMVI 31 µM | M14 17.9 µM | MCF7 43.2 µM | MDA-MB-231 38.9 µM | MDA-MB-435 37.6 µM | MDA-N 22.3 µM | MOLT-4 28.9 µM | Malme-3M 17.9 µM | NCI-H226 22.5 µM | NCI-H23 44.1 µM | NCI-H460 15.3 µM | NCI-H522 23.3 µM | NCI/ADR-RES 32.6 µM | OVCAR-3 37.1 µM | OVCAR-4 28.1 µM | OVCAR-5 23 µM | OVCAR-8 25 µM | PC-3 28.4 µM | RPMI-8226 89.9 µM | RXF 393 20.5 µM | SF-268 29.1 µM | SF-295 33.8 µM | SF-539 18 µM | SK-MEL-28 23.2 µM | SK-MEL-2 37.5 µM | SK-MEL-5 63.8 µM | SK-OV-3 48.1 µM | SN12C 28.9 µM | SNB-19 27.9 µM | SNB-75 28.6 µM | SR 36.4 µM | SW-620 46 µM | T47D 35.3 µM | TK-10 14.6 µM | U-251 26.5 µM | UACC-257 23.5 µM | UO-31 18.2 µM
40.6 µM: HCT-15

O[C@@H]1CCC[C@@H]2NC[C@@H](c3ccc4c(c3)OCO4)[C@H]12
inactive: 786-0 > 100 µM | A498 > 100 µM | A549 > 100 µM | ACHN > 100 µM | CAKI-1 > 100 µM | CCRF-CEM > 100 µM | COLO 205 > 100 µM | DU-145 > 100 µM | EKVX > 100 µM | HCC 2998 > 100 µM | HL-60 96.4 µM | HOP-62 > 100 µM | HOP-92 > 100 µM | HT-29 > 100 µM | Hs-578T 99.1 µM | IGROV-1 > 100 µM | K562 > 100 µM | KM12 > 100 µM | LOX IMVI > 100 µM | M14 > 100 µM | MCF7 > 100 µM | MDA-MB-231 > 100 µM | MDA-MB-435 > 100 µM | MDA-N > 100 µM | MOLT-4 > 100 µM | Malme-3M > 100 µM | NCI-H226 > 100 µM | NCI-H23 > 100 µM | NCI-H460 > 100 µM | NCI-H522 > 100 µM | NCI/ADR-RES > 100 µM | OVCAR-3 > 100 µM | OVCAR-4 > 100 µM | OVCAR-5 > 100 µM | OVCAR-8 > 100 µM | PC-3 > 100 µM | RPMI-8226 > 100 µM | RXF 393 > 100 µM | SF-268 > 100 µM | SF-295 > 100 µM | SF-539 > 100 µM | SK-MEL-28 > 100 µM | SK-MEL-2 > 100 µM | SK-MEL-5 > 100 µM | SK-OV-3 > 100 µM | SNB-19 > 100 µM | SNB-75 > 100 µM | SR > 100 µM | SW-620 > 100 µM | T47D > 100 µM | TK-10 > 100 µM | U-251 > 100 µM | UACC-257 > 100 µM | UACC-62 > 100 µM | UO-31 > 100 µM
> 100 µM: HCT-15
